These are literature values, as cited in PubChem BioAssay AID1259410 (Chemical Carcinogenesis Research Information System (CCRIS), 2018).

The data set relates to rodent tumor promotion studies, tumor incidence. Briefly: CCRIS tumor promotion studies.

For the compound `CCOc1ccc2c(c1)C(C)=CC(C)(C)N2`, the outcome (Carcinogen: 1,2-DIMETHYLHYDRAZINE, 540-73-8, Doses [Carcinogen]: 20 MG/KG 1/WK FOR 4 WK, Doses [Promoter]: 0, 0.8% IN DIET FOR 36 WK (STUDY DURATION: 40 WK), Route [Carcinogen]: SUBCUTANEOUS, Route [Promoter]: ORAL, Species: RAT, Strain/Sex: F344/MALE) is “colon: tumor”; the outcome (Carcinogen: N-BUTYL-N-(4-HYDROXYBUTYL)NITROSAMINE, 3817-11-6, Doses [Carcinogen]: 0.05% IN DRINKING WATER FOR 4 WK, Doses [Promoter]: 0, 0.8% IN DIET FOR 32 WK (STUDY DURATION: 36 WK), Route [Carcinogen]: ORAL, Route [Promoter]: ORAL, Species: RAT, Strain/Sex: F344/MALE) is recorded as “urinary bladder: papilloma, carcinoma”; the outcome (Carcinogen: N-BUTYL-N-(4-HYDROXYBUTYL)NITROSAMINE, 3817-11-6, Doses [Carcinogen]: 0.05% IN DRINKING WATER FOR 4 WK, Doses [Promoter]: 0, 0.8% IN DIET FOR 32 WK BEGINNING POST CARCINOGEN (STUDY DURATION: 36 WK), Route [Carcinogen]: ORAL, Route [Promoter]: ORAL, Species: RAT, Strain/Sex: F344/MALE) is given as “bladder: papilloma”; the outcome (Carcinogen: N-ETHYL-N-(HYDROXYETHYL)NITROSAMINE, 13147-25-6, Doses [Carcinogen]: 0.1% IN DRINKING WATER FOR 2 WK, Doses [Promoter]: 0, 0.8% IN DIET FOR 29 WK (STUDY DURATION: 31 WK), Route [Carcinogen]: ORAL, Route [Promoter]: ORAL, Species: RAT, Strain/Sex: F344/MALE) is listed as “kidney: adenoma”.
For H-HADGVFTSDYSRLLGQLSAKKYLESLI-NH2, the outcome (Carcinogen: AZOXYMETHANE, 25843-45-2, Doses [Carcinogen]: 7.4 MG/KG BW IN 0.9% SALINE 1/WK FOR 10 WK, Doses [Promoter]: 0, 4 NMOL/KG BW IN OLIVE OIL 1/2 D FOR DURATION OF STUDY (STUDY DURATION: 35 WK), Route [Carcinogen]: SUBCUTANEOUS, Route [Promoter]: SUBCUTANEOUS, Species: RAT, Strain/Sex: WISTAR/MALE, FEMALE) was “colon: tumor”.
For the compound `C[C@]12CC[C@H]3[C@@H](CCC4=CC(=O)CC[C@@]43C)[C@@H]1CC[C@@H]2O`, the outcome (Carcinogen: DIETHYLNITROSAMINE, 55-18-5, Doses [Carcinogen]: 2.5 UG/G BW IN SALINE ONCE, Doses [Promoter]: 0, 0.5-1 MG IN PELLET IMPLANTED 1/MONTH FOR 30 WK BEGINNING 30 D POST CARCINOGEN TREATMENT. DOSING BEGAN SAME DAY OF BIL, Route [Carcinogen]: INTRAPERITIONEAL, Route [Promoter]: SUBCUTANEOUS, Species: MOUSE, Strain/Sex: B6C3F1/FEMALE) is on record as “liver: tumor”.
With `C=CCS(=O)(=O)CC=C`, the outcome (Carcinogen: Vinyl carbamate, 15805-73-9, Doses [Carcinogen]: 60 mg/kg once 2 hr after inhibitor (Study duration: 25 wk), Doses [Promoter]: 50 mg/kg once at beginning of experiment (Study duration: 25 wk), Route [Carcinogen]: Intraperitoneal, Route [Promoter]: Oral, Species: Mouse, Strain/Sex: F1 (Big Blue x A/J) (43/?)/47/?)) was “lung: solid tumors (61 (42%), 135 (86.5%), p<0.01)”.
With `O=C1O[C@H]([C@@H](O)CO)C(O)=C1O`, the outcome is on record as “colon: tumor” (Carcinogen: 1,2-DIMETHYLHYDRAZINE, 540-73-8, Doses [Carcinogen]: 20 MG/KG 1/WK FOR 4 WK, Doses [Promoter]: 0, 5% IN DIET FOR 36 WK (STUDY DURATION: 40 WK), Route [Carcinogen]: SUBCUTANEOUS, Route [Promoter]: ORAL, Species: RAT, Strain/Sex: F344/MALE); “forestomach: squamous cell carcinoma” (Carcinogen: BUTYLATED HYDROXYANISOLE, 25013-16-5, Doses [Carcinogen]: 2% IN DIET FOR 1 YR, Doses [Promoter]: 0, 2% IN DIET CONCOMITANTLY WITH CARCINOGEN FOR 1 YR (STUDY DURATION: 1 YR), Route [Carcinogen]: ORAL, Route [Promoter]: ORAL, Species: RAT, Strain/Sex: F344/MALE); “urinary bladder: papilloma; forestomach: carcinoma” (Carcinogen: METHYLNITROSOUREA, 684-93-5, Doses [Carcinogen]: 20 MG/KG 2/WK FOR 4 WK, Doses [Promoter]: 0, 5% IN DIET BEGINNING POST CARCINOGEN TREATMENT AND CONTINUING FOR 32 WK (STUDY DURATION: 36 WK), Route [Carcinogen]: INTRAPERITONEAL, Route [Promoter]: ORAL, Species: RAT, Strain/Sex: F344/MALE); “bladder: papilloma” (Carcinogen: N-BUTYL-N-4(HYDROXYBUTYL)NITROSAMINE, 3817-11-6, Doses [Carcinogen]: 0.05% IN DRINKING WATER FOR 2 WK, Doses [Promoter]: 0, 5% IN DIET STARTING POST CARCINOGEN AND CONTINUING FOR 22 WK, LEFT URETER LIGATED 8 D POST CARCINOGEN (STUDY DURATION, Route [Carcinogen]: ORAL, Route [Promoter]: ORAL, Species: RAT, Strain/Sex: F344/MALE); “urinary bladder: papilloma, carcinoma” (Carcinogen: N-BUTYL-N-(4-HYDROXYBUTYL)-NITROSAMINE, 3817-11-6, Doses [Carcinogen]: 0.05% IN DRINKING WATER FOR 4 WK, Doses [Promoter]: 0, 5% IN DIET FOR 32 WK BEGINNING POST CARCINOGEN TREATMENT (STUDY DURATION: 36 WK), Route [Carcinogen]: ORAL, Route [Promoter]: ORAL, Species: RAT, Strain/Sex: F344/MALE); “urinary bladder: papilloma, carcinoma” (Carcinogen: N-BUTYL-N-(4-HYDROXYBUTYL)-NITROSAMINE, 3817-11-6, Doses [Carcinogen]: 0.05% IN DRINKING WATER FOR 4 WK, Doses [Promoter]: 0, 5% IN DIET FOR 32 WK BEGINNING POST CARCINOGEN TREATMENT (STUDY DURATION: 36 WK), Route [Carcinogen]: ORAL, Route [Promoter]: ORAL, Species: RAT, Strain/Sex: LEW/MALE). For the same compound, the outcome runs as follows: (Carcinogen: N-BUTYL-N-(4-HYDROXYBUTYL)NITROSAMINE [3817-11-6], Doses [Carcinogen]: 0.05% IN DRINKING WATER FOR 4 WK (STUDY DURATION: 40 WK), Doses [Promoter]: 2.5% IN DIET FOR 18 WK BEGINNING IMMEDIATELY POST LAST CARCINOGEN DOSE (STUDY DURATION: 40 WK), Route [Carcinogen]: ORAL, Route [Promoter]: ORAL, Species: RAT, Strain/Sex: F344/MALE) “urinary bladder: tumor”; (Carcinogen: N-BUTYL-N-(4-HYDROXYBUTYL)NITROSAMINE, 3817-11-6, Doses [Carcinogen]: 0.05% IN DRINKING WATER FOR 2 WK, Doses [Promoter]: 0, 5% IN DIET FOR 32 WK BEGINNING POST CARCINOGEN TREATMENT (STUDY DURATION: 34 WK), Route [Carcinogen]: ORAL, Route [Promoter]: ORAL, Species: RAT, Strain/Sex: F344/MALE) “urinary bladder: papilloma, carcinoma”; (Carcinogen: N-BUTYL-N-(4-HYDROXYBUTYL)NITROSAMINE, 3817-11-6, Doses [Carcinogen]: 0.05% IN DRINKING WATER FOR 4 WK, Doses [Promoter]: 0, 5% IN BASAL DIET CONTAINING 1.5% SODIUM BICARBONATE FOR 32 WK (STUDY DURATION: 36 WK), Route [Carcinogen]: ORAL, Route [Promoter]: ORAL, Species: RAT, Strain/Sex: F344/MALE) “urinary bladder: carcinoma”; (Carcinogen: N-BUTYL-N-(4-HYDROXYBUTYL)NITROSAMINE, 3817-11-6, Doses [Carcinogen]: 0.05% IN DRINKING WATER FOR 4 WK, Doses [Promoter]: 0, 5% IN DIET FOR 32 WK (STUDY DURATION: 36 WK), Route [Carcinogen]: ORAL, Route [Promoter]: ORAL, Species: RAT, Strain/Sex: F344/MALE) “urinary bladder: papilloma, carcinoma”; (Carcinogen: N-BUTYL-N-(4-HYDROXYBUTYL)NITROSAMINE, 3817-11-6, Doses [Carcinogen]: 0.05% IN DRINKING WATER FOR 4 WK, Doses [Promoter]: 0, 5% IN DIET FOR 32 WK BEGINNING POST CARCINOGEN TREATMENT (STUDY DURATION: 36 WK), Route [Carcinogen]: ORAL, Route [Promoter]: ORAL, Species: RATS, Strain/Sex: F344/SHI/MALE) “bladder: papilloma, carcinoma”; (Carcinogen: N-BUTYL-N-(4-HYDROXYBUTYL)NITROSAMINE, 3817-11-6, Doses [Carcinogen]: 0.05% IN DRINKING WATER FOR 4 WK, Doses [Promoter]: 0, 5% IN DIET FOR 32 WK POST CARCINOGEN DOSE (STUDY DURATION: 36 WK), Route [Carcinogen]: ORAL, Route [Promoter]: ORAL, Species: RAT, Strain/Sex: F344/MALE) “bladder: carcinoma or papilloma”. The outcome is reported as “forestomach: papilloma, carcinoma; urinary bladder: papilloma, carcinoma” (Carcinogen: N-METHYL-N-NITROSOUREA, 684-93-5, Doses [Carcinogen]: 20 MG/KG 2/WK FOR 4 WK, Doses [Promoter]: 0, 5% IN DIET FOR 32 WK (STUDY DURATION: 32 WK), Route [Carcinogen]: INTRAPERITONEAL, Route [Promoter]: ORAL, Species: RAT, Strain/Sex: F344/MALE); “urinary bladder: carcinoma, carcinoma or papilloma” (Carcinogen: N-[4-(5-NITRO-2-FURYL)-2-THIAZOLYL]FORMAMIDE, 24554-26-5, Doses [Carcinogen]: 0.2% IN DIET FOR 6 WK, Doses [Promoter]: 0, 5% IN PROLAB DIET FOR 72 WK BEGINNING POST CARCINOGEN TREATMENT (STUDY DURATION: 78 WK), Route [Carcinogen]: ORAL, Route [Promoter]: ORAL, Species: RAT, Strain/Sex: F344/MALE); “esophagus (p1-p4): papilloma; significant only for combined treatment in p4 segm” (Carcinogen: N-bis(2-hydroxypropyl)nitrosamine (DHPN) (53609-64-6), Doses [Carcinogen]: 0.1% (w/v) in drinking water for 3 wk, then surgery for acid reflux esophagitis, study duration 34 wk, Doses [Promoter]: 0 (basal diet), 1% ascorbic acid, 1% ascorbic acid with 0.2% sodium nitrite, study duration 32 wk after first promoter d, Doses [Promoter]: 0 (basal diet), 1% ascorbic acid, 1% ascorbic acid with 0.2% sodium nitrite, study duration 32 wk after first promoter d, Route [Carcinogen]: Oral, Route [Promoter]: Oral, Species: Rat, Strain/Sex: F344/Male (24/group)); “forestomach: squamous cell carcinoma, papilloma increased in incidence and/or se” (Carcinogen: N-methyl-N'-nitro-N-nitrosoguanidine (70-25-7), Doses [Carcinogen]: 0.01% in drinking water for 10 wk for initiation of glandular stomach tumors, 100 mg/kg intragastrically after 16 hr st, Doses [Promoter]: 0.1% or 1.0% in the diet from wk 11 to end of study in combination with 0.05%, 0.1%, or 0.2% sodium nitrite in drinki, Route [Carcinogen]: Oral and Intragastric, Route [Promoter]: Oral, Species: Rat, Strain/Sex: F344/Male (15/15)/(14/15)(15/15)(15/15)(15/15)(15/15)(14/15)).
